In brackets after ≈: the same amount, converted by molar mass. Several values for one entry are separate records, joined by “and”; a condition that tells them apart may be missing. Equal values may be shown once.
How the values were obtained:
Typhlodromus pyri = test: LR50; higher = less toxic; settings: acute; duration: 48 hours; reproduction
Aphidius rhopalosiphi = test: LR50; higher = less toxic; settings: acute; duration: 7 days; reproduction
Oncorhynchus mykiss = settings: acute; duration: 96 hours; mortality
Daphnia magna = settings: chronic/long-term; duration: 21 days; reproduction
Tagia sp. = settings: acute; duration: 14 days; mortality
Apis mellifera = settings: acute; duration: 48 hours; oral; unspecified; mortality
Colinus virginianus = settings: acute, oral, mortality
Landoltia sp. = settings: acute; duration: 14 days; growth
Anas platyrhynchos = settings: acute; oral; unspecified; mortality
Pimephales promelas = settings: chronic/long-term; duration: 28 days; growth

## CN(C)C(=O)Nc1cccc(C(F)(F)F)c1 [Fluometuron]
Typhlodromus pyri
  LR50: 28.9 g/ha
Aphidius rhopalosiphi
  LR50: 398 g/ha
Oncorhynchus mykiss
  LC50: 30 µg/mL (≈ 129 µM)
Daphnia magna
  NOEC: 6.6 mg/L
Tagia sp.
  LC50: 1000 mg/kg
Apis mellifera
  LD50: > 34 µg/piece
Colinus virginianus; diet
  LC50: > 1600 mg/kg and 4310 mg/kg
Colinus virginianus
  LD50: > 2150 mg/kg
Landoltia sp.
  NOEC: 0.185 mg/L
Anas platyrhynchos
  LD50: 2970 mg/kg
Rattus norvegicus; acute, oral, mortality
  LD50: > 5000 mg/kg
Rattus norvegicus; chronic, duration: 104 weeks, hematological
  NOAEL: 0.553 mg/kg-day
Rattus norvegicus; developmental, development
  NOEL: 24 mg/kg-day
Rattus norvegicus; reproduction developmental, other
  NOAEL: 0.8 mg/kg-day
Pimephales promelas
  NOEC: 3.1 mg/L

— EPA's ToxValDB 9.5 (doi:10.2903/j.efsa.2011.1958)
